According to the NIST ThermoML archive (doi:10.1021/je0500577):

What was measured:
[1] = for surface tension liquid-gas: Drop volume; for mass density: 101.33 kPa, Liquid
[2] = xn = mol fraction of the nth substance listed

CC1CCC(C)O1 (stereo not drawn) [2,5-dimethyltetrahydrofuran]
[1]
Conditions	mass density [kg/m3]	surface tension liquid-gas [mN/m]
298.15 K	825.25	22.93
313.15 K	–	21.5

BrC1CCCCC1 [bromocyclohexane] + CC1CCC(C)O1
[2], x1 = 1
Conditions	surface tension liquid-gas [mN/m]
298.15 K	33.63
313.15 K	32.98

BrC1CCCCC1 [bromocyclohexane] + C1CCOCC1
surface tension liquid-gas [mN/m], [2], Drop volume
Conditions	298.15 K	313.15 K
x1 = 0.0539	27.62	25.95
x1 = 0.098	27.89	26.32
x1 = 0.1908	28.45	27.01
x1 = 0.296	29.11	27.7
x1 = 0.3969	29.75	28.35
x1 = 0.4993	30.43	28.98
x1 = 0.6178	31.23	29.74
x1 = 0.712	31.86	30.43
x1 = 0.8067	32.49	31.23
x1 = 0.8816	32.95	31.88
x1 = 0.9568	33.39	32.57
x1 = 1	33.63	32.98

ClC1CCCCC1 [chlorocyclohexane] + CC1CCC(C)O1
[2], Drop volume, x1 = 1
Conditions	surface tension liquid-gas [mN/m]
298.15 K	31.05
313.15 K	29.44

C1CCOCC1 [tetrahydropyran] + ClC1CCCCC1
[2], Drop volume, x2 = 0
Conditions	surface tension liquid-gas [mN/m]
298.15 K	27.29
313.15 K	25.46

C1CCOC1 [tetrahydrofuran] + ClC1CCCCC1
[2], Drop volume, x2 = 0
Conditions	surface tension liquid-gas [mN/m]
298.15 K	27.12
313.15 K	25.24

ClC1CCCCC1 [chlorocyclohexane] + CC1CCCO1
surface tension liquid-gas [mN/m], [2], Drop volume
Conditions	298.15 K	313.15 K
x1 = 0.0434	–	23.23
x1 = 0.0471	24.85	–
x1 = 0.0868	–	23.44
x1 = 0.0884	25.11	–
x1 = 0.1719	–	23.93
x1 = 0.1722	25.63	–
x1 = 0.2652	26.2	–
x1 = 0.2653	–	24.47
x1 = 0.3536	–	25
x1 = 0.3605	26.81	–
x1 = 0.4587	27.44	–
x1 = 0.4591	–	25.65
x1 = 0.5615	28.15	–
x1 = 0.5618	–	26.31
x1 = 0.6654	28.86	–
x1 = 0.6677	–	27.03
x1 = 0.7734	–	27.78
x1 = 0.7761	29.62	–
x1 = 0.8805	–	28.58
x1 = 0.8856	30.34	–
x1 = 0.9404	–	29
x1 = 0.9418	30.7	–
x1 = 1	31.05	29.44

CC1CCC(C)O1 (stereo not drawn) [2,5-dimethyltetrahydrofuran] + BrC1CCCCC1
surface tension liquid-gas [mN/m], [2]
Conditions	298.15 K	313.15 K
x2 = 0	22.93	21.5
x2 = 0.0692	23.3	21.71
x2 = 0.0908	23.42	21.83
x2 = 0.1916	24.03	22.52
x2 = 0.2942	24.54	23.16
x2 = 0.3981	24.9	23.73
x2 = 0.4712	25.17	24.06
x2 = 0.5994	25.96	24.84
x2 = 0.6382	26.39	25.15
x2 = 0.701	–	25.74
x2 = 0.8032	29.16	–
x2 = 0.8035	–	27.31
x2 = 0.8552	30.35	–
x2 = 0.8558	–	28.4
x2 = 0.8996	31.47	–
x2 = 0.9378	32.34	30.81

CC1CCCO1 (stereo not drawn) [2-methyltetrahydrofuran] + ClC1CCCCC1
[2], Drop volume, x2 = 0
Conditions	surface tension liquid-gas [mN/m]
298.15 K	24.56
313.15 K	23.02

ClC1CCCCC1 [chlorocyclohexane]
[1]
Conditions	mass density [kg/m3]	surface tension liquid-gas [mN/m]
298.15 K	993.17	31.05
313.15 K	–	29.44

BrC1CCCCC1 [bromocyclohexane] + C1CCOC1
surface tension liquid-gas [mN/m], [2], Drop volume
Conditions	298.15 K	313.15 K
x1 = 0.0528	27.39	25.66
x1 = 0.0909	27.62	25.94
x1 = 0.1919	28.31	26.67
x1 = 0.2954	29.06	27.39
x1 = 0.3997	29.82	28.12
x1 = 0.5057	30.56	28.88
x1 = 0.611	31.24	29.65
x1 = 0.7127	31.89	30.42
x1 = 0.8064	–	31.18
x1 = 0.8232	32.56	–
x1 = 0.8937	32.98	–
x1 = 0.8994	–	32
x1 = 0.9467	33.31	32.44
x1 = 1	33.63	32.98

CC1CCCO1 (stereo not drawn) [2-methyltetrahydrofuran] + BrC1CCCCC1
[2], Drop volume, x2 = 0
Conditions	surface tension liquid-gas [mN/m]
298.15 K	24.56
313.15 K	23.02

ClC1CCCCC1 [chlorocyclohexane] + C1CCOCC1
surface tension liquid-gas [mN/m], [2], Drop volume
Conditions	298.15 K	313.15 K
x1 = 0.044	–	25.64
x1 = 0.0446	27.44	–
x1 = 0.085	27.58	–
x1 = 0.0854	–	25.82
x1 = 0.1668	–	26.17
x1 = 0.1673	27.88	–
x1 = 0.2584	28.23	–
x1 = 0.259	–	26.55
x1 = 0.3519	28.62	–
x1 = 0.3527	–	26.94
x1 = 0.4499	–	27.33
x1 = 0.4501	29.01	–
x1 = 0.5511	29.41	–
x1 = 0.5923	–	27.91
x1 = 0.6578	–	28.17
x1 = 0.658	29.82	–
x1 = 0.7676	30.24	–
x1 = 0.7693	–	28.6
x1 = 0.8744	30.62	–
x1 = 0.8809	–	29.02
x1 = 0.9385	–	29.22
x1 = 0.9393	30.84	–
x1 = 1	31.05	29.44

C1CCOCC1 [tetrahydropyran]
[1]
Conditions	mass density [kg/m3]	surface tension liquid-gas [mN/m]
298.15 K	878.82	27.29
313.15 K	–	25.46

C1CCOC1 [tetrahydrofuran] + BrC1CCCCC1
[2], Drop volume, x2 = 0
Conditions	surface tension liquid-gas [mN/m]
298.15 K	27.12
313.15 K	25.24

BrC1CCCCC1 [bromocyclohexane] + CC1CCCO1
surface tension liquid-gas [mN/m], [2], Drop volume
Conditions	298.15 K	313.15 K
x1 = 0.042	24.87	23.36
x1 = 0.0933	25.28	23.78
x1 = 0.1942	26.13	24.63
x1 = 0.2908	26.95	25.48
x1 = 0.3921	27.82	26.38
x1 = 0.5072	28.82	27.43
x1 = 0.5896	29.55	28.19
x1 = 0.6994	30.58	29.24
x1 = 0.8173	31.75	30.49
x1 = 0.9043	32.65	31.55
x1 = 0.9247	32.86	31.85
x1 = 1	33.63	32.98

CC1CCCO1 (stereo not drawn) [2-methyltetrahydrofuran]
[1]
Conditions	mass density [kg/m3]	surface tension liquid-gas [mN/m]
298.15 K	849.4	24.56
313.15 K	–	23.02

C1CCOCC1 [tetrahydropyran] + BrC1CCCCC1
[2], Drop volume, x2 = 0
Conditions	surface tension liquid-gas [mN/m]
298.15 K	27.29
313.15 K	25.46

CC1CCC(C)O1 (stereo not drawn) [2,5-dimethyltetrahydrofuran] + ClC1CCCCC1
surface tension liquid-gas [mN/m], [2], Drop volume
Conditions	298.15 K	313.15 K
x2 = 0	22.93	21.5
x2 = 0.054	–	21.87
x2 = 0.0582	23.29	–
x2 = 0.0998	–	22.15
x2 = 0.1048	23.51	–
x2 = 0.1988	24	–
x2 = 0.202	–	22.76
x2 = 0.3031	24.46	–
x2 = 0.3037	–	23.3
x2 = 0.4025	24.96	–
x2 = 0.4049	–	23.78
x2 = 0.5047	25.45	–
x2 = 0.509	–	24.29
x2 = 0.6055	–	24.87
x2 = 0.6071	25.99	–
x2 = 0.7039	–	25.58
x2 = 0.7088	26.75	–
x2 = 0.8075	–	26.61
x2 = 0.8097	27.83	–
x2 = 0.9009	29.1	–
x2 = 0.9065	–	27.94
x2 = 0.9479	–	28.54
x2 = 0.9482	29.98	–

BrC1CCCCC1 [bromocyclohexane]
[1]
Conditions	mass density [kg/m3]	surface tension liquid-gas [mN/m]
298.15 K	1328.41	33.63
313.15 K	–	32.98

ClC1CCCCC1 [chlorocyclohexane] + C1CCOC1
surface tension liquid-gas [mN/m], [2], Drop volume
Conditions	298.15 K	313.15 K
x1 = 0.0361	–	25.39
x1 = 0.0362	27.27	–
x1 = 0.0727	–	25.56
x1 = 0.0728	27.43	–
x1 = 0.1434	–	25.88
x1 = 0.1442	27.73	–
x1 = 0.2257	–	26.25
x1 = 0.2258	28.07	–
x1 = 0.3114	28.43	26.66
x1 = 0.4061	28.82	27.09
x1 = 0.5071	–	27.52
x1 = 0.5093	29.25	–
x1 = 0.6163	29.68	–
x1 = 0.6173	–	27.96
x1 = 0.7351	–	28.42
x1 = 0.7359	30.11	–
x1 = 0.8582	–	28.89
x1 = 0.8602	30.54	–
x1 = 0.9267	30.77	–
x1 = 0.9291	–	29.16
x1 = 1	31.05	29.44

C1CCOC1 [tetrahydrofuran]
[1]
Conditions	mass density [kg/m3]	surface tension liquid-gas [mN/m]
298.15 K	882.1	27.12
313.15 K	–	25.24
